Target: T1, CRTH2 (Homo sapiens, UniProt Q9Y5Y4)
T1 construct: expressed in transfected cells; host or cells: CHO cells
T1 sequence (Q9Y5Y4 1-395): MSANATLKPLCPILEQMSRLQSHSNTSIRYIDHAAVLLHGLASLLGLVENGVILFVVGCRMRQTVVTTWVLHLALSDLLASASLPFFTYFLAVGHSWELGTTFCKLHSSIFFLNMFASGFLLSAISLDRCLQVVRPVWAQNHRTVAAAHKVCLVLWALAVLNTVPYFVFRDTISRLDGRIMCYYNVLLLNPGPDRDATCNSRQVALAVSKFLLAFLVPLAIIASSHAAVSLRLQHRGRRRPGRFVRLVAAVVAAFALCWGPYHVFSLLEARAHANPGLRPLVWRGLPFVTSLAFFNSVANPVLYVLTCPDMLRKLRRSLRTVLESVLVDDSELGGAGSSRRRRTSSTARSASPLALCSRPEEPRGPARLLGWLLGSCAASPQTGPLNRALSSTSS
Assay: FRET based competitive immunoassay (cAMP) in CRTH2 expressing CHO cells
Format: cell-based
Conditions: CRTH2 expressing CHO cells incubated with forskolin and PGD2; Eu3+ cryptate-labeled anti-cAMP and d2-labeled cAMP
Method: FRET Assay: To evaluate potency compounds were tested in a FRET based competitive immunoassay in which CRTH2 expressing CHO cells were incubated in the presence of forskolin and PGD2 along with Eu3+ cryptate-labeled anti-cAMP and d2-labeled cAMP.

Structure (SMILES) | IC50
Cc1c(Cc2ccc(=O)n(Cc3cc(F)c(F)cc3F)n2)c2cc(F)ccc2n1CC(=O)O [Example 193, 2-(5-fluoro-2-methyl-3-((6-oxo-1-(2,4,5-trifluorobenzyl)-1,6-dihydro-pyridazin-3-yl)methyl)-1H-indol-1-yl)acetic acid] | 8 nM
Cc1c(-c2nn(Cc3ccc(C(F)(F)F)c(F)c3)c(=O)c3ccccc23)c2cc(F)ccc2n1CC(=O)O [Example 6, 2-(5-Fluoro-3-(3-(3-fluoro-4-(trifluoromethyl)benzyl)-4-oxo-3,4-dihydrophthalazin-1-yl)-2-methyl-1H-indol-1-yl)acetic acid] | 23 nM
Cc1c(-c2nn(Cc3ncnn3-c3ccccc3)c(=O)c3ccccc23)c2cc(F)ccc2n1CC(=O)O [Example 261, 2-(5-fluoro-2-methyl-3-(4-oxo-3-((1-phenyl-1H-1,2,4-triazol-5-yl)methyl)-3,4-dihydrophthalazin-1-yl)-1H-indol-1-yl)acetic acid] | 11 nM
Cc1c(Cc2ccc(=O)n(Cc3ccccc3)c2)c2cc(F)ccc2n1CC(=O)O [Example 346, {3-[(1-benzyl-6-oxo-1,6-dihydropyridin-3-yl)methyl]-5-fluoro-2-methyl-1H-indol-1-yl}acetic acid] | 11 nM
Cc1c(-c2nn(Cc3nnc[nH]3)c(=O)c3ccccc23)c2cc(F)ccc2n1CC(=O)O [Example 270, 2-(3-(3-((4H-1,2,4-triazol-3-yl)methyl)-4-oxo-3,4-dihydrophthalazin-1-yl)-5-fluoro-2-methyl-1H-indol-1-yl)acetic acid] | > 5500 nM
CCC(O)(CC)Cn1nc(-c2c(C)n(CC(=O)O)c3ccc(F)cc23)c2ccccc2c1=O [Example 128, 2-(3-(3-(2-ethyl-2-hydroxybutyl)-4-oxo-3,4-dihydrophthalazin-1-yl)-5-fluoro-2-methyl-1H-indol-1-yl)acetic acid] | 6 nM
Cc1c(Cc2ccc(=O)n(Cc3cccc(F)c3F)c2)c2cc(F)ccc2n1CC(=O)O [Example 28, 2-(3-((1-(2,3-Difluorobenzyl)-6-oxo-1,6-dihydropyridin-3-yl)methyl)-5-fluoro-2-methyl-1H-indol-1-yl)acetic acid] | 17 nM
Cc1c(-c2ccc(=O)n(CCCC(F)(F)F)c2)c2cc(F)ccc2n1CC(=O)NS(C)(=O)=O [Example 318, 2-(5-fluoro-2-methyl-3-(6-oxo-1-(4,4,4-trifluorobutyl)-1,6-dihydropyridin-3-yl)-1H-indol-1-yl)-N-(methylsulfonyl)acetamide] | > 1000 nM
Cc1c(Cc2ccc(=O)n(Cc3cc(F)cc(F)c3)c2)c2ccccc2n1CC(=O)O [Example 35, 2-(3-((1-(3,5-Difluorobenzyl)-6-oxo-1,6-dihydropyridin-3-yl)methyl)-2-methyl-1H-indol-1-yl)acetic acid] | 65 nM
Cc1c(-c2ccc(=O)n(Cc3ccccc3)n2)c2cc(S(C)(=O)=O)cc(F)c2n1CC(=O)O [Example 17, 2-(3-(1-Benzyl-6-oxo-1,6-dihydropyridazin-3-yl)-7-fluoro-2-methyl-5-(methylsulfonyl)-1H-indol-1-yl)acetic acid] | 2780 nM
Cc1c(Cc2ccc(=O)n(CC(O)(C(F)(F)F)C(F)(F)F)n2)c2cc(F)ccc2n1CC(=O)O [Example 201, [5-fluoro-2-methyl-3-({6-oxo-1-[3,3,3-trifluoro-2-hydroxy-2-(trifluoromethyl)-propyl]-1,6-dihydro-pyridazin-3-yl}methyl)-1H-indol-1-yl]acetic acid] | 22 nM
Cc1c(-c2ccc(=O)n(Cc3ccccc3)n2)c2cc(Cl)cc(Cl)c2n1CC(=O)O [Example 234, 2-(3-(1-benzyl-6-oxo-1,6-dihydropyridazin-3-yl)-5,7-dichloro-2-methyl-1H-indol-1-yl)acetic acid] | 1000 nM
Cc1c(-c2nn(Cc3ccccc3)c(=O)c3ccccc23)c2ccccc2n1CC(=O)N(C)C [Example 48, 2-(3-(3-Benzyl-4-oxo-3,4-dihydrophthalazin-1-yl)-2-methyl-1H-indol-1-yl)-N,N-dimethylacetamide] | > 2000 nM
Cc1c(-c2cn(C(C)C)c(=O)c3ccccc23)c2ccccc2n1CC(=O)O [Example 252, 2-(3-(2-isopropyl-1-oxo-1,2-dihydroisoquinolin-4-yl)-2-methyl-1H-indol-1-yl)acetic acid] | 12 nM
Cc1c(-c2ccc(=O)n(Cc3ccccc3C(F)(F)F)n2)c2cc(F)ccc2n1CC(=O)O [Example 216, 2-(5-fluoro-2-methyl-3-(6-oxo-1-(2-(trifluoromethyl)benzyl)-1,6-dihydropyridazin-3-yl)-1H-indol-1-yl)acetic acid] | 14 nM
Cc1c(-c2cn(CCCC(F)(F)F)c(=O)c3c2CCCC3)c2cc(F)ccc2n1CC(=O)O [Example 89, 2-(5-fluoro-2-methyl-3-(1-oxo-2-(4,4,4-trifluorobutyl)-1,2,5,6,7,8-hexahydro-isoquinolin-4-yl)-1H-indol-1-yl)acetic acid] | 123 nM

Structure (SMILES) | IC50
Cc1c(Cc2ccc(=O)n(Cc3cc(F)c(F)cc3F)c2)c2cc(F)ccc2n1CC(=O)O [Example 23, 2-(5-Fluoro-2-methyl-3-((6-oxo-1-(2,4,5-trifluorobenzyl)-1,6-dihydro-pyridin-3-yl)methyl)-1H-indol-1-yl)acetic acid] | 17 nM
Cc1c(Cc2ccc(=O)n(Cc3ccc(F)cc3F)c2)c2cc(Cl)ccc2n1CC(=O)O [Example 42, 2-(5-Chloro-3-((1-(2,4-difluorobenzyl)-6-oxo-1,6-dihydropyridin-3-yl)-methyl)-2-methyl-1H-indol-1-yl)acetic acid] | 7 nM
Cc1c(-c2nn(Cc3nc4cc(C(F)(F)F)ccc4s3)c(=O)c3ccccc23)c2cc(F)ccc2n1CC(=O)O [Example 115, 2-(5-fluoro-2-methyl-3-(4-oxo-3-((5-(trifluoromethyl)benzo[d]thiazol-2-yl)-methyl)-3,4-dihydrophthalazin-1-yl)-1H-indol-1-yl)acetic acid] | 64 nM
Cc1c(Cc2ccc(=O)n(CC(C)(C)C)n2)c2cc(F)ccc2n1CC(=O)O [Example 343, (3-{[1-(2,2-dimethylpropyl)-6-oxo-1,6-dihydropyridazin-3-yl]methyl}-5-fluoro-2-methyl-1H-indol-1-yl)acetic acid] | 142 nM
COc1ccc2c(c1)c(-c1nn(Cc3ccccc3)c(=O)c3ccccc13)c(C)n2CC(=O)O [Example 16, 2-(3-(3-Benzyl-4-oxo-3,4-dihydrophthalazin-1-yl)-5-methoxy-2-methyl-1H-indol-1-yl)acetic acid] | 31 nM
Cc1c(-c2ccc(=O)n(Cc3ccc(Cl)cc3)n2)c2cc(Cl)ccc2n1CC(=O)O [Example 9, 2-(5-Chloro-3-(1-(4-chlorobenzyl)-6-oxo-1,6-dihydropyridazin-3-yl)-2-methyl-1H-indol-1-yl)acetic acid] | 21 nM
Cc1cc(Cn2nc(-c3c(C)n(CC(=O)O)c4ccc(F)cc34)c3ccccc3c2=O)c2ccccc2n1 [Example 119, 2-(5-fluoro-2-methyl-3-(3-((2-methylquinolin-4-yl)methyl)-4-oxo-3,4-dihydro-phthalazin-1-yl)-1H-indol-1-yl)acetic acid] | 17 nM
Cc1c(Cc2ccc(=O)n(Cc3ccccc3F)n2)c2cc(F)ccc2n1CC(=O)O [Example 340, (3-{[1-(2-fluorobenzyl)-6-oxo-1,6-dihydropyridazin-3-yl]methyl}-5-fluoro-2-methyl-1H-indol-1-yl)acetic acid] | 3 nM
Cc1c(-c2ccc(=O)n(Cc3cc(F)c(F)cc3F)c2)c2cc(F)ccc2n1CC(=O)O [Example 271, 2-(5-Fluoro-2-methyl-3-(6-oxo-1-(2,4,5-trifluorobenzyl)-1,6-dihydropyridin-3-yl)-1H-indol-1-yl)acetic acid] | 12 nM
Cc1c(-c2nn(Cc3ccc(OC(F)(F)F)cc3)c(=O)c3ccccc23)c2ccccc2n1CC(=O)O [Example 170, 2-(2-methyl-3-(4-oxo-3-(4-(trifluoromethoxy)benzyl)-3,4-dihydrophthalazin-1-yl)-1H-indol-1-yl)acetic acid] | 25 nM
Cc1c(-c2ccc(=O)n(Cc3nc4ccccc4s3)n2)c2cc(F)ccc2n1CC(=O)O [Example 153, 2-(3-(1-(benzo[d]thiazol-2-ylmethyl)-6-oxo-1,6-dihydropyridazin-3-yl)-5-fluoro-2-methyl-1H-indol-1-yl)acetic acid] | 25 nM
Cc1c(Cc2ccc(=O)n(Cc3cc(F)c(F)cc3F)c2)c2ccccc2n1CC(=O)O [Example 24] | 28 nM
Cc1c(Cc2ccc(=O)n(CC(F)(F)F)n2)c2cc(F)ccc2n1CC(=O)O [Example 345, (5-fluoro-2-methyl-3-{[6-oxo-1-(2,2,2-trifluoroethyl)-1,6-dihydropyridazin-3-yl]-methyl}-1H-indol-1-yl)acetic acid] | 31 nM
Cc1c(-c2ccc(=O)n(Cc3cc(F)ccc3F)n2)c2cc(Cl)ccc2n1CC(=O)O [Example 67, 2-(5-chloro-3-(1-(2,5-difluorobenzyl)-6-oxo-1,6-dihydropyridazin-3-yl)-2-methyl-1H-indol-1-yl)acetic acid] | 23 nM
Cc1c(-c2cn(Cc3ccccc3)c(=O)c3ccccc23)c2ccccc2n1CC(=O)O [Example 247, 2-(3-(2-benzyl-1-oxo-1,2-dihydroisoquinolin-4-yl)-2-methyl-1H-indol-1-yl)-acetic acid] | 12 nM

— patent US20110105509A1 (Wyeth, LLC, priority 2009, published 2011)
